Patent publication US6689773B2, “Uracil substituted phenyl sulfamoyl carboxamides” (BASF Aktiengesellschaft, priority 2000, dated 2004)

Tests used:
Type in all cases: in vivo
[1] = test system: ABUTH, Velvetleaf, Abutilon theophrasti, Medic.; test: Postemergence herbicidal evaluation (Example 147); details: rating scale 0-9, two to three weeks after treatment
Summary of the method: (§1)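 Plants at about two weeks from sowing received a foliar spray of test compound equivalent to roughly 0.016 to 0.032 kg per hectare. The carrier was 80/20 acetone/water containing 1.0% methylated seed oil. Injury was scored on a 0-9 visual scale two to three weeks later.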

[2] = test system: ALOMY, Blackgrass, Alopecurus myosuroides; test: Postemergence herbicidal evaluation (Example 147); details: rating scale 0-9, two to three weeks after treatment
Summary of the method: as §1

[3] = test system: AMBEL, Ragweed, Common, Ambrosia artemiisifolia, L.; test: Postemergence herbicidal evaluation (Example 147); details: rating scale 0-9, two to three weeks after treatment
Summary of the method: as §1

[4] = test system: CHEAL, Lambsquarters, Chenopodium album, L. Common; test: Postemergence herbicidal evaluation (Example 147); details: rating scale 0-9, two to three weeks after treatment
Summary of the method: as §1

[5] = test system: DIGSA, Crabgrass, (Hairy) L, Digitaria sanguinalis, (L)Scop; test: Postemergence herbicidal evaluation (Example 147); details: rating scale 0-9, two to three weeks after treatment
Summary of the method: as §1

[6] = test system: ECHCG, Barnyardgrass, Echinochloa crusgalli, (L.)Beau; test: Postemergence herbicidal evaluation (Example 147); details: rating scale 0-9, two to three weeks after treatment
Summary of the method: as §1

[7] = test system: GLXMA, Soybean, Glycine max, (L.) Merr.; test: Postemergence herbicidal evaluation (Example 147); details: rating scale 0-9, two to three weeks after treatment
Summary of the method: as §1

[8] = test system: IPOHE, Morningglory, Ivyleaf, Ipomoea hederacea, (L)Jacq.; test: Postemergence herbicidal evaluation (Example 147); details: rating scale 0-9, two to three weeks after treatment
Summary of the method: as §1

[9] = test system: SETVI, Green foxtail, Setaria viridis, (L.)Beau; test: Postemergence herbicidal evaluation (Example 147); details: rating scale 0-9, two to three weeks after treatment
Summary of the method: as §1

[10] = test system: TRZAW, Winter wheat, Tritium Aestivum, L. (Winter); test: Postemergence herbicidal evaluation (Example 147); details: rating scale 0-9, two to three weeks after treatment
Summary of the method: as §1

[11] = test system: XANST, Cocklebur, Xanthium strumariam; test: Postemergence herbicidal evaluation (Example 147); details: rating scale 0-9, two to three weeks after treatment
Summary of the method: as §1

[12] = test system: ZEAMX, Field corn, Zea mays L.; test: Postemergence herbicidal evaluation (Example 147); details: rating scale 0-9, two to three weeks after treatment
Summary of the method: as §1

[13] = test system: ABUTH, Velvetleaf, Abutilon theophrasti, Medic.; test: Preemergence herbicidal evaluation (Example 148); details: rating scale 0-9, two to four weeks after treatment
Summary of the method: (§2)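 Visual rating vs. control (stand, vigor, malformation, size, chlorosis, overall appearance) at 2–4 wk post-treatment. Soil surface sprayed right after sowing; ~0.125–0.250 kg/ha in aqueous acetone. Repeat tests averaged.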

[14] = test system: ALOMY, Blackgrass, Alopecurus myosuroides; test: Preemergence herbicidal evaluation (Example 148); details: rating scale 0-9, two to four weeks after treatment
Summary of the method: as §2

[15] = test system: AMBEL, Ragweed, Common, Ambrosia artemiisifolia, L.; test: Preemergence herbicidal evaluation (Example 148); details: rating scale 0-9, two to four weeks after treatment
Summary of the method: as §2

[16] = test system: CHEAL, Lambsquarters, Chenopodium album, L. Common; test: Preemergence herbicidal evaluation (Example 148); details: rating scale 0-9, two to four weeks after treatment
Summary of the method: as §2

[17] = test system: DIGSA, Crabgrass, (Hairy) L, Digitaria sanguinalis, (L)Scop; test: Preemergence herbicidal evaluation (Example 148); details: rating scale 0-9, two to four weeks after treatment
Summary of the method: as §2

[18] = test system: ECHCG, Barnyardgrass, Echinochloa crusgalli, (L.)Beau; test: Preemergence herbicidal evaluation (Example 148); details: rating scale 0-9, two to four weeks after treatment
Summary of the method: as §2

[19] = test system: GLXMA, Soybean, Glycine max, (L.) Merr.; test: Preemergence herbicidal evaluation (Example 148); details: rating scale 0-9, two to four weeks after treatment
Summary of the method: as §2

[20] = test system: IPOHE, Morningglory, Ivyleaf, Ipomoea hederacea, (L)Jacq.; test: Preemergence herbicidal evaluation (Example 148); details: rating scale 0-9, two to four weeks after treatment
Summary of the method: as §2

[21] = test system: SETVI, Green foxtail, Setaria viridis, (L.)Beau; test: Preemergence herbicidal evaluation (Example 148); details: rating scale 0-9, two to four weeks after treatment
Summary of the method: as §2

[22] = test system: TRZAW, Winter wheat, Tritium Aestivum, L. (Winter); test: Preemergence herbicidal evaluation (Example 148); details: rating scale 0-9, two to four weeks after treatment
Summary of the method: as §2

[23] = test system: XANST, Cocklebur, Xanthium strumariam; test: Preemergence herbicidal evaluation (Example 148); details: rating scale 0-9, two to four weeks after treatment
Summary of the method: as §2

[24] = test system: ZEAMX, Field corn, Zea mays L.; test: Preemergence herbicidal evaluation (Example 148); details: rating scale 0-9, two to four weeks after treatment
Summary of the method: as §2

CCNS(=O)(=O)NC(=O)c1cc(-n2c(=O)cc(C(F)(F)F)n(C)c2=O)c(F)cc1Cl [Example 80]
Postemergence herbicidal rating ABUTH ([1]; rate 0.016 kg/ha): 7.0
Postemergence herbicidal rating ABUTH ([1]; rate 0.032 kg/ha): 9.0
Postemergence herbicidal rating ALMOY ([2]; rate 0.016 kg/ha): 0.0
Postemergence herbicidal rating ALMOY ([2]; rate 0.032 kg/ha): 1.0
Postemergence herbicidal rating AMBEL ([3]; rate 0.016 kg/ha): 7.0
Postemergence herbicidal rating AMBEL ([3]; rate 0.032 kg/ha): 8.0
Postemergence herbicidal rating CHEAL ([4]; rate 0.016 kg/ha): 3.0
Postemergence herbicidal rating CHEAL ([4]; rate 0.032 kg/ha): 4.0
Postemergence herbicidal rating DIGSA ([5]; rate 0.016 kg/ha): 3.0
Postemergence herbicidal rating DIGSA ([5]; rate 0.032 kg/ha): 4.0
Postemergence herbicidal rating ECHCG ([6]; rate 0.016 kg/ha): 4.0
Postemergence herbicidal rating ECHCG ([6]; rate 0.032 kg/ha): 6.0
Postemergence herbicidal rating GLXMA ([7]; rate 0.016 kg/ha): 8.0
Postemergence herbicidal rating GLXMA ([7]; rate 0.032 kg/ha): 8.0
Postemergence herbicidal rating IPOHE ([8]; rate 0.016 kg/ha): 9.0
Postemergence herbicidal rating IPOHE ([8]; rate 0.032 kg/ha): 9.0
Postemergence herbicidal rating SETVI ([9]; rate 0.016 kg/ha): 5.0
Postemergence herbicidal rating SETVI ([9]; rate 0.032 kg/ha): 6.0
Postemergence herbicidal rating TRZAW ([10]; rate 0.016 kg/ha): 3.0
Postemergence herbicidal rating TRZAW ([10]; rate 0.032 kg/ha): 4.0
Postemergence herbicidal rating XANST ([11]; rate 0.016 kg/ha): 8.0
Postemergence herbicidal rating XANST ([11]; rate 0.032 kg/ha): 9.0
Postemergence herbicidal rating ZEAMX ([12]; rate 0.016 kg/ha): 1.5
Postemergence herbicidal rating ZEAMX ([12]; rate 0.032 kg/ha): 4.0
Preemergence herbicidal rating ABUTH ([13]; rate 0.125 kg/ha): 1.0
Preemergence herbicidal rating ABUTH ([13]; rate 0.25 kg/ha): 5.0
Preemergence herbicidal rating ALMOY ([14]; rate 0.125 kg/ha): 0.0
Preemergence herbicidal rating ALMOY ([14]; rate 0.25 kg/ha): 0.0
Preemergence herbicidal rating AMBEL ([15]; rate 0.125 kg/ha): 1.0
Preemergence herbicidal rating AMBEL ([15]; rate 0.25 kg/ha): 3.0
Preemergence herbicidal rating CHEAL ([16]; rate 0.125 kg/ha): 5.0
Preemergence herbicidal rating CHEAL ([16]; rate 0.25 kg/ha): 8.0
Preemergence herbicidal rating DIGSA ([17]; rate 0.125 kg/ha): 0.0
Preemergence herbicidal rating DIGSA ([17]; rate 0.25 kg/ha): 1.0
Preemergence herbicidal rating ECHCG ([18]; rate 0.125 kg/ha): 0.0
Preemergence herbicidal rating ECHCG ([18]; rate 0.25 kg/ha): 3.0
Preemergence herbicidal rating GLXMA ([19]; rate 0.125 kg/ha): 0.0
Preemergence herbicidal rating GLXMA ([19]; rate 0.25 kg/ha): 0.0
Preemergence herbicidal rating IPOHE ([20]; rate 0.125 kg/ha): 0.0
Preemergence herbicidal rating IPOHE ([20]; rate 0.25 kg/ha): 0.0
Preemergence herbicidal rating SETVI ([21]; rate 0.125 kg/ha): 0.0
Preemergence herbicidal rating SETVI ([21]; rate 0.25 kg/ha): 0.0
Preemergence herbicidal rating TRZAW ([22]; rate 0.125 kg/ha): 0.0
Preemergence herbicidal rating TRZAW ([22]; rate 0.25 kg/ha): 0.0
Preemergence herbicidal rating XANST ([23]; rate 0.125 kg/ha): 0.0
Preemergence herbicidal rating XANST ([23]; rate 0.25 kg/ha): 1.0
Preemergence herbicidal rating ZEAMX ([24]; rate 0.125 kg/ha): 0.0
Preemergence herbicidal rating ZEAMX ([24]; rate 0.25 kg/ha): 0.0

COc1ccc(CNS(=O)(=O)NC(=O)c2cc(-n3c(=O)cc(C(F)(F)F)n(C)c3=O)c(F)cc2Cl)cc1 [Example 82]
Postemergence herbicidal rating ABUTH ([1]; rate 0.016 kg/ha): 9.0
Postemergence herbicidal rating ABUTH ([1]; rate 0.032 kg/ha): 9.0
Postemergence herbicidal rating ALMOY ([2]; rate 0.016 kg/ha): 1.0
Postemergence herbicidal rating ALMOY ([2]; rate 0.032 kg/ha): 2.0
Postemergence herbicidal rating AMBEL ([3]; rate 0.016 kg/ha): 9.0
Postemergence herbicidal rating AMBEL ([3]; rate 0.032 kg/ha): 9.0
Postemergence herbicidal rating CHEAL ([4]; rate 0.016 kg/ha): 9.0
Postemergence herbicidal rating CHEAL ([4]; rate 0.032 kg/ha): 9.0
Postemergence herbicidal rating DIGSA ([5]; rate 0.016 kg/ha): 3.0
Postemergence herbicidal rating DIGSA ([5]; rate 0.032 kg/ha): 3.0
Postemergence herbicidal rating ECHCG ([6]; rate 0.016 kg/ha): 7.0
Postemergence herbicidal rating ECHCG ([6]; rate 0.032 kg/ha): 8.0
Postemergence herbicidal rating GLXMA ([7]; rate 0.016 kg/ha): 8.0
Postemergence herbicidal rating GLXMA ([7]; rate 0.032 kg/ha): 8.5
Postemergence herbicidal rating IPOHE ([8]; rate 0.016 kg/ha): 9.0
Postemergence herbicidal rating IPOHE ([8]; rate 0.032 kg/ha): 9.0
Postemergence herbicidal rating SETVI ([9]; rate 0.016 kg/ha): 6.0
Postemergence herbicidal rating SETVI ([9]; rate 0.032 kg/ha): 7.0
Postemergence herbicidal rating TRZAW ([10]; rate 0.016 kg/ha): 5.5
Postemergence herbicidal rating TRZAW ([10]; rate 0.032 kg/ha): 6.0
Postemergence herbicidal rating XANST ([11]; rate 0.016 kg/ha): 9.0
Postemergence herbicidal rating XANST ([11]; rate 0.032 kg/ha): 9.0
Postemergence herbicidal rating ZEAMX ([12]; rate 0.016 kg/ha): 6.5
Postemergence herbicidal rating ZEAMX ([12]; rate 0.032 kg/ha): 6.5
Preemergence herbicidal rating ABUTH ([13]; rate 0.125 kg/ha): 9.0
Preemergence herbicidal rating ABUTH ([13]; rate 0.25 kg/ha): 9.0
Preemergence herbicidal rating ALMOY ([14]; rate 0.125 kg/ha): 0.0
Preemergence herbicidal rating ALMOY ([14]; rate 0.25 kg/ha): 0.0
Preemergence herbicidal rating AMBEL ([15]; rate 0.125 kg/ha): 9.0
Preemergence herbicidal rating AMBEL ([15]; rate 0.25 kg/ha): 9.0
Preemergence herbicidal rating CHEAL ([16]; rate 0.125 kg/ha): 9.0
Preemergence herbicidal rating CHEAL ([16]; rate 0.25 kg/ha): 9.0
Preemergence herbicidal rating DIGSA ([17]; rate 0.125 kg/ha): 4.0
Preemergence herbicidal rating DIGSA ([17]; rate 0.25 kg/ha): 4.0
Preemergence herbicidal rating ECHCG ([18]; rate 0.125 kg/ha): 3.0
Preemergence herbicidal rating ECHCG ([18]; rate 0.25 kg/ha): 4.0
Preemergence herbicidal rating GLXMA ([19]; rate 0.125 kg/ha): 9.0
Preemergence herbicidal rating GLXMA ([19]; rate 0.25 kg/ha): 9.0
Preemergence herbicidal rating IPOHE ([20]; rate 0.125 kg/ha): 9.0
Preemergence herbicidal rating IPOHE ([20]; rate 0.25 kg/ha): 9.0
Preemergence herbicidal rating SETVI ([21]; rate 0.125 kg/ha): 3.0
Preemergence herbicidal rating SETVI ([21]; rate 0.25 kg/ha): 7.0
Preemergence herbicidal rating TRZAW ([22]; rate 0.125 kg/ha): 0.0
Preemergence herbicidal rating TRZAW ([22]; rate 0.25 kg/ha): 1.0
Preemergence herbicidal rating XANST ([23]; rate 0.125 kg/ha): 9.0
Preemergence herbicidal rating XANST ([23]; rate 0.25 kg/ha): 9.0
Preemergence herbicidal rating ZEAMX ([24]; rate 0.125 kg/ha): 0.0
Preemergence herbicidal rating ZEAMX ([24]; rate 0.25 kg/ha): 2.0
